Like-named read-outs stand apart in the source and are kept apart here. A value given as a limit tells only on which side of the number the result lay.

The values below come from patent US9656959B2, “Substituted pyridines as sodium channel blockers” (Purdue Pharma L.P., priority 2010, dated 2017).

One experiment addresses human Nav1.7 (Homo sapiens (Human), UniProt Q15858). As to the kind of experiment: FLIPR or FLIPR TETRA sodium dye assay with KCl and test article pre-incubation. Type of experiment: cell-based.
In another experiment the target is hNav1.7 (Homo sapiens (Human), UniProt Q15858). As to the kind of experiment: Electrophysiology (EP) assay, whole-cell patch clamp. The experiment is classed as cell-based. To be noted: hNav1.7 HEK-293 cells; for Ki: affinity for the inactivated state of the channel, read-out: Nav1.7 Activity (μM) EP assay Ki; for Kd: resting block dissociation constant, read-out: Nav1.7 Activity (μM) EP assay Kr. The procedure:
The hNav1.7 expressing HEK-293 cells were plated on 35 mm culture dishes pre-coated with poly-D-lysine in standard DMEM culture media (Mediatech, Inc., Herndon, Va.) and incubated in a 5% CO2 incubator at 37° C. Cultured cells were used approximately 12-48 hours after plating.
On the day of experimentation, the 35 mm dish was placed on the stage of an inverted microscope equipped with a perfusion system that continuously perfuses the culture dish with fresh recording media. A gravity driven superfusion system was used to apply test solutions directly to the cell under evaluation. This system consists of an array of glass pipette connected to a motorized horizontal translator. The outlet of the shooter was positioned approximately 100 μm from the cell of interest.
Whole cell currents were recorded using the whole-cell patch clamp configuration using an Axopatch 200B amplifier (Axon Instruments, Foster City Calif.), 1322A A/D converter (Axon Instruments) and pClamp software (v. 8; Axon Instruments) and stored on a personal computer. Gigaseals were formed and the whole-cell configuration was established in voltage clamp mode, and membrane currents generated by hNav1.7 were recorded in gap-free mode. Borosilicate glass pipettes have resistance values between 1.5 and 2.0 MΩ when filled with pipette solution and series resistance (<5 MΩ) was compensated 75-80%. Signals were sampled at 50 kHz and low pass filtered at 3 kHz.
After establishing the whole-cell configuration in voltage clamp mode, voltage protocols were run to establish the 1) test potential, 2) holding potential, and 3) the conditioning potential for each cell.
After establishing the whole-cell configuration in voltage clamp mode, a standard I-V protocol was run to determine the potential at which the maximal current (Imax) is elicited. This potential was the test potential (Vt). […] This protocol also permitted determination of the holding potential at which all channels are in the resting state.
For compounds causing significant retardation of recovery from inactivation, an estimate of the affinity for the inactivated state of the channel (Ki) was generated using the following protocol. From the negative, no residual inactivation, holding potential, the cell was depolarized to the conditioning voltage for 2-5 seconds, returned to the negative holding potential for 10-20 ms to relieve fast inactivation and then depolarized to the test potential for ˜15 ms. This voltage protocol was repeated every 10-15 seconds, first to establish a baseline in the absence of the test compound, then in the presence of the test compound.
After a stable baseline was established, the test compound was applied and block of the current elicited by the test pulse assessed. In some cases, multiple cumulative concentrations were applied to identify a concentration that blocked between 40-60% of this current. Washout of the compound was attempted by superfusing with control solution once steady-state block was observed. An estimate of the K, was calculated as follows: Ki=[drug]*{FR/(1−FR)}, Eq. 1
where [drug] is the concentration of a drug, and FR=I(after drug)/I(control), Eq. 2 where I is the peak current amplitude. If multiple concentrations were used, Ki was determined from the fit of a logistic equation to FRs plotted against corresponding drug concentrations.
In the alternative, the voltage clamp protocol to examine hNav1.7 currents was as follows. First, the standard current-voltage relationship was tested by pulsing the cell from the holding voltage (Vh) of −120 mV by a series of 5 msec long square-shaped test pulses incrementing in +10 mV steps over the membrane voltage range of −90 mV to +60 mV at the pace of stimulation of 0.5 Hz. This procedure determines the voltage that elicits the maximal current (Vmax). […]
In general terms: Patch clamp records ionic current or voltage across a cell membrane.

[1] abbreviates: recombinant Nav1.7/HEK293 cells, CoroNa Green sodium dye, veratridine + scorpion venom agonists, ± SEM.
Setting [2] is: read-out: Nav1.7 Activity (μM) FLIPR assay IC50 (μM) ± SEM.

Sequence of human Nav1.7 (Q15858 with tags, fused parts or gaps limits assumed): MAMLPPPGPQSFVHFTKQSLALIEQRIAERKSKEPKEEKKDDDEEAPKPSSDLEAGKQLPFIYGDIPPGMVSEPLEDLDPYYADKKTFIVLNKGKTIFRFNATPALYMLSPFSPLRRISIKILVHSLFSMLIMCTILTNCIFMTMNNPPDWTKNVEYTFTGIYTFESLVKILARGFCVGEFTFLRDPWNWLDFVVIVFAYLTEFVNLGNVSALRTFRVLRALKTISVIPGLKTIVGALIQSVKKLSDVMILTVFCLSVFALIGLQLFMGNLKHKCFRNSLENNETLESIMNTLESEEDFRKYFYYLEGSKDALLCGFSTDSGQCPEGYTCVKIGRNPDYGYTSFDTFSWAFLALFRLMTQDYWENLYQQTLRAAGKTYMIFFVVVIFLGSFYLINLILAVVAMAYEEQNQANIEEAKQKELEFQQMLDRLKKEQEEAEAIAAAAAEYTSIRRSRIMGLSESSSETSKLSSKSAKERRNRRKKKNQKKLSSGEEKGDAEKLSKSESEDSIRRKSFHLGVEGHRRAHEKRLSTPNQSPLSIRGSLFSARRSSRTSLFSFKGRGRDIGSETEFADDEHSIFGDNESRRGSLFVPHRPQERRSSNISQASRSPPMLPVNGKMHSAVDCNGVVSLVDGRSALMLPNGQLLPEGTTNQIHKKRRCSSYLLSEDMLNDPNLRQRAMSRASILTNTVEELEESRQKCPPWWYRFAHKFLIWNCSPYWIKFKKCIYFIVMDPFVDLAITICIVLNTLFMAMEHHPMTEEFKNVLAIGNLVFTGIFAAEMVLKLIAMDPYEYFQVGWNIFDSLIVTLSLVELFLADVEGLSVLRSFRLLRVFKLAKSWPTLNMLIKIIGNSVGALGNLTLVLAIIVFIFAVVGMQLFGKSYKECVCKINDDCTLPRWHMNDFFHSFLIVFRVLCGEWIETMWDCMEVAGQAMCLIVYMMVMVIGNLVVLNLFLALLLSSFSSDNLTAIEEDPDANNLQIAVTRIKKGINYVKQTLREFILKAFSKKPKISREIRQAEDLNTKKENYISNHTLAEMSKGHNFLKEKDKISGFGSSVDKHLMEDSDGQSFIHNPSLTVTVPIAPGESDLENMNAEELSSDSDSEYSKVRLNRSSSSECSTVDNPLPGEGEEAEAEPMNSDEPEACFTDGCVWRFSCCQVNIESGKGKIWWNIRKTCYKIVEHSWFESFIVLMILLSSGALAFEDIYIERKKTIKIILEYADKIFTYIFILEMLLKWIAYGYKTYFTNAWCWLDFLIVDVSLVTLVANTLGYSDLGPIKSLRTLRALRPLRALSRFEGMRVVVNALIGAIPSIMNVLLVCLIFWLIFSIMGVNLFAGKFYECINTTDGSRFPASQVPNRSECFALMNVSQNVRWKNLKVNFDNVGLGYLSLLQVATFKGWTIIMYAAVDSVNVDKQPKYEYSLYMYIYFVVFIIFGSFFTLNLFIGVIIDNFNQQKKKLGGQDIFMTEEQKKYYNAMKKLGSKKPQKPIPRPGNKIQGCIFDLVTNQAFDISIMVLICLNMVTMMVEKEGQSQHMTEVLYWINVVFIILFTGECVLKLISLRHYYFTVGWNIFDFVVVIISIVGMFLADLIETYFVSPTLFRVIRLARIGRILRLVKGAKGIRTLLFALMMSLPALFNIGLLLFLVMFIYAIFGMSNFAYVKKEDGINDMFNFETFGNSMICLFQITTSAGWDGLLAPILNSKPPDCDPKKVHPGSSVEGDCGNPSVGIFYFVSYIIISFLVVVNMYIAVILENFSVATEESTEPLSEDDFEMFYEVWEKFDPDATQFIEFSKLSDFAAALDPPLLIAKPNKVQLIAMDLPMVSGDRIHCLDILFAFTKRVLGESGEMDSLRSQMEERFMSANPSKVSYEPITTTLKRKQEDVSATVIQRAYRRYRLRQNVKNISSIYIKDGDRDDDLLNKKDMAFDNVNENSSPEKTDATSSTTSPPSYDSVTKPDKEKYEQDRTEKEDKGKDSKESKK
Sequence of hNav1.7 (Q15858 other isoform, or with tags, fused parts or gaps): as the sequence (Q15858 with tags, fused parts or gaps limits assumed) above

Broadly, the IC50 is the concentration that inhibits the measured activity by half. In the case of `CC(=O)N[C@@H](CC(C)C)C(=O)Nc1cccc(-c2ccc(Oc3ccc(F)cc3)cc2)n1` [Compound 3, (S)-2-acetamido-N-(6-(4-(4-fluorophenoxy)phenyl)pyridin-2-yl)-4-methylpentanamide], the IC50 on human Nav1.7 (setting [1]) was 0.042 ± 0.02 µM. In addition, the Ki on hNav1.7 amounted to 0.194 ± 0.07 µM. For `CC(=O)N[C@@H](Cc1ccccc1)C(=O)Nc1cccc(-c2ccc(Oc3ccc(F)cc3)cc2)n1` [Compound 4, (S)-2-acetamido-N-(6-(4-(4-fluorophenoxy)phenyl)pyridin-2-yl)-3-phenylpropanamide], in that order: 0.064 ± 0.02 µM and 0.13 ± 0.03 µM. Regarding `CC(C)C[C@H](NC(=O)c1ccccn1)C(=O)Nc1cccc(-c2ccc(Oc3ccc(F)cc3)cc2)n1` [Compound 7, (S)-N-(1-((6-(4-(4-fluorophenoxy)phenyl)pyridin-2-yl)amino)-4-methyl-1-oxopentan-2-yl)picolinamide], the IC50 on human Nav1.7 (setting [2]) amounted to 0.067 ± 0.007 µM. Moreover, on hNav1.7, the Ki turned out to be 0.059 ± 0.01 µM and the Kd was 18 ± 1 µM.

With `CC(C)C[C@H](NC(N)=O)C(=O)Nc1cccc(-c2ccc(Oc3ccc(F)cc3)cc2)n1` [Compound 12, (S)-N-(6-(4-(4-fluorophenoxy)phenyl)pyridin-2-yl)-4-methyl-2-ureidopentanamide], the IC50 at human Nav1.7 (setting [1]) came out at 0.096 ± 0.004 µM. For the same compound, on hNav1.7, the Ki was found to be 0.257 ± 0.06 µM and the Kd was found to be 5.06 µM. With `CC(C)C[C@H](NC(=O)NC(C)(C)C)C(=O)Nc1cccc(-c2ccc(Oc3ccc(F)cc3)cc2)n1` [Compound 13, (S)-2-(3-(tert-butyl)ureido)-N-(6-(4-(4-fluorophenoxy)phenyl)pyridin-2-yl)-4-methylpentanamide], the IC50 on human Nav1.7 (setting [1]) was found to be 0.075 ± 0.017 µM. On hNav1.7, the Ki was 0.075 ± 0.02 µM and the Kd was found to be 10.2 ± 0.2 µM. Regarding `CC(=O)N[C@@H](Cc1c[nH]cn1)C(=O)Nc1cccc(-c2ccc(Oc3ccc(F)cc3)cc2)n1` [Compound 32, (S)-2-acetamido-N-(6-(4-(4-fluorophenoxy)phenyl)pyridin-2-yl)-3-(1H-imidazol-4-yl)propanamide], at human Nav1.7 (setting [2]), the IC50 is 0.086 ± 0.02 µM. Further, on hNav1.7, the Ki was 0.025 µM and the Kd stood at 0.58 ± 0.1 µM.

For the compound `O=C(N[C@@H](Cc1c[nH]cn1)C(=O)Nc1cccc(-c2ccc(Oc3ccc(F)cc3)cc2)n1)C1CC1` [Compound 33, (S)-N-(1-((6-(4-(4-fluorophenoxy)phenyl)pyridin-2-yl)amino)-3-(1H-imidazol-4-yl)-1-oxopropan-2-yl)cyclopropanecarboxamide], on human Nav1.7 (setting [2]), the IC50 came out at 0.11 ± 0.02 µM. In addition, at hNav1.7, the Ki is 0.206 ± 0.04 µM and the Kd came out at 5.31 ± 0.56 µM.

With `CS(=O)(=O)N[C@@H](Cc1c[nH]cn1)C(=O)Nc1cccc(-c2ccc(Oc3ccc(F)cc3)cc2)n1` [Compound 38, (S)-N-(6-(4-(4-fluorophenoxy)phenyl)pyridin-2-yl)-3-(1H-imidazol-4-yl)-2-(methylsulfonamido)propanamide], the IC50 at human Nav1.7 (setting [2]) was 0.14 ± 0.03 µM. Further, on hNav1.7, the Ki came to 0.019 ± 0.01 µM and the Kd was determined as 1.2 ± 0.31 µM.

Regarding `O=C(N[C@@H](CO)C(=O)Nc1cccc(-c2ccc(Oc3ccc(F)cc3)cc2)n1)c1cccnc1` [Compound 56, N-((S)-1-{6-[4-(4-Fluoro-phenoxy)-phenyl]-pyridin-2-ylcarbamoyl}-2-hydroxy-ethyl)-nicotinamide], the IC50 on human Nav1.7 (setting [2]) turned out to be 0.14 ± 0.05 µM. For the same compound, at hNav1.7, the Ki stood at 0.195 ± 0.07 µM and the Kd was 32.2 ± 8.38 µM. In the case of `CC(C)(C)OC(=O)N[C@@H](CO)C(=O)Nc1cccc(-c2ccc(Oc3ccc(F)cc3)cc2)n1` [Compound 59, ((S)-1-{6-[4-(4-Fluoro-phenoxy)-phenyl]-pyridin-2-ylcarbamoyl}-2-hydroxy-ethyl)-carbamic acid tert-butyl ester], the IC50 on human Nav1.7 (setting [2]) stood at 0.31 ± 0.07 µM.

Consider `NC(=O)N[C@@H](CO)C(=O)Nc1cccc(-c2ccc(Oc3ccc(F)cc3)cc2)n1` [Compound 61, (S)-N-{6-[4-(4-Fluoro-phenoxy)-phenyl]-pyridin-2-yl}-3-hydroxy-2-ureido-propionamide], for which the IC50 at human Nav1.7 (setting [2]) is 0.12 ± 0.05 µM.

`O=C1NCCN1CCNc1cc(Cl)cc(-c2ccc(Oc3ccc(F)cc3)cc2)n1` [Compound 64, 1-(2-((4-chloro-6-(4-(4-fluorophenoxy)phenyl)pyridin-2-yl)amino)ethyl)imidazolidin-2-one]: the IC50 on human Nav1.7 (setting [2]) is 0.12 ± 0.01 µM. As to `Nc1nc(O)cc(C(=O)Nc2cccc(-c3ccc(Oc4ccc(F)cc4)cc3)n2)n1` [Compound 65, 2-amino-N-(6-(4-(4-fluorophenoxy)phenyl)pyridin-2-yl)-6-hydroxypyrimidine-4-carboxamide], the IC50 at human Nav1.7 (setting [1]) was more than 20 µM. Turning to `O=C(Nc1cccc(-c2ccc(Oc3ccc(C(F)(F)F)cc3)cc2)n1)C(O)CO` (stereo not drawn) [Compound 76, 2,3-dihydroxy-N-(6-(4-(4-(trifluoromethyl)phenoxy)phenyl)pyridin-2-yl)propanamide], the IC50 at human Nav1.7 (setting [2]) is more than 20 µM.

Take `CCC(=O)N[C@@H](Cc1cn(C)cn1)C(=O)Nc1cccc(-c2ccc(Oc3ccc(F)cc3)cc2)n1` [Compound 81, (S)-N-(6-(4-(4-fluorophenoxy)phenyl)pyridin-2-yl)-3-(1-methyl-1H-imidazol-4-yl)-2-propionamidopropanamide]: at human Nav1.7 (setting [2]), the IC50 amounted to 0.064 ± 0.01 µM. On the same count and under the same terms, under `CC(C)C(=O)N[C@@H](Cc1cn(C)cn1)C(=O)Nc1cccc(-c2ccc(Oc3ccc(F)cc3)cc2)n1` [Compound 82, (S)-N-(6-(4-(4-fluorophenoxy)phenyl)pyridin-2-yl)-2-isobutyramido-3-(1-methyl-1H-imidazol-4-yl)propanamide] stands 0.046 ± 0.005 µM; under `Cn1cnc(C[C@H](NC(=O)C(C)(C)C)C(=O)Nc2cccc(-c3ccc(Oc4ccc(F)cc4)cc3)n2)c1` [Compound 83, (S)-N-(6-(4-(4-fluorophenoxy)phenyl)pyridin-2-yl)-3-(1-methyl-1H-imidazol-4-yl)-2-pivalamidopropanamide], 0.02 ± 0.002 µM; under `CC(=O)N[C@@H](Cc1cn(C)cn1)C(=O)Nc1cc(-c2ccc(Oc3ccc(F)cc3)cc2)ccn1` [Compound 84, (S)-2-acetamido-N-(4-(4-(4-fluorophenoxy)phenyl)pyridin-2-yl)-3-(1-methyl-1H-imidazol-4-yl)propanamide], 0.29 ± 0.025 µM. On to `Cn1cnc(C[C@H](NC(=O)CC(F)(F)F)C(=O)Nc2cccc(-c3ccc(Oc4ccc(F)cc4)cc3)n2)c1` [Compound 86, (S)-3,3,3-trifluoro-N-(1-((6-(4-(4-fluorophenoxy)phenyl)pyridin-2-yl)amino)-3-(1-methyl-1H-imidazol-4-yl)-1-oxopropan-2-yl)propanamide], for which, on human Nav1.7 (setting [2]), the IC50 was determined as 0.084 ± 0.007 µM. On the same count and under the same terms, for `CC(C)C[C@H](NC(=O)CO)C(=O)Nc1cccc(-c2ccc(Oc3ccc(F)cc3)cc2)n1` [Compound 90, (S)-N-(6-(4-(4-fluorophenoxy)phenyl)pyridin-2-yl)-2-(2-hydroxyacetamido)-4-methylpentanamide] the value was 0.07 ± 0.012 µM; for `O=C(Nc1cccc(-c2ccc(Oc3ccc(C(F)(F)F)cn3)cc2)n1)C(O)CO` (stereo not drawn) [Compound 96, 2,3-dihydroxy-N-(6-(4-((5-(trifluoromethyl)pyridin-2-yl)oxy)phenyl)pyridin-2-yl)propanamide], more than 20 µM. Turning to `Cn1cnc2ccc(C(=O)Nc3cccc(-c4ccc(Oc5ccc(F)cc5)cc4)n3)cc21` [Compound 98, N-(6-(4-(4-fluorophenoxy)phenyl)pyridin-2-yl)-1-methyl-1H-benzo[d]imidazole-6-carboxamide], the IC50 at human Nav1.7 (setting [1]) was more than 20 µM. `Cn1cnc(C[C@H](NC(=O)Nc2cccc(-c3ccc(Oc4ccc(F)cc4)cc3)n2)C(N)=O)c1` [Compound 99, (S)-2-(3-(6-(4-(4-fluorophenoxy)phenyl)pyridin-2-yl)ureido)-3-(1-methyl-1H-imidazol-4-yl)propanamide]: the IC50 on human Nav1.7 (setting [2]) turned out to be 0.667 ± 0.162 µM.
